# PMC8022203 (ACS infectious diseases, 2021)
# Target: HadA (Mycobacterium tuberculosis, UniProt P9WFK1)
# Type: binding
# HadA, sequence (P9WFK1 whole entry): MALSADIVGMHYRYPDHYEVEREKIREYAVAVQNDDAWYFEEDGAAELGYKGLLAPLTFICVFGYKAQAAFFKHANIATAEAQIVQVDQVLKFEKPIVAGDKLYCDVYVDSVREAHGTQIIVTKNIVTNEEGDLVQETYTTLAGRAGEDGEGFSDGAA
smiles,measurement,value
"CCN(CC)c1ccc2cc(-c3ccc(/C=N/NC(N)=S)s3)c(=O)oc2c1 [Coum-TAC, (E)-((5-(7-((N,N)-diethylamino)-2-oxo-2H-chromen-3-yl)thiophen-2-yl)methylene)hydrazine-1-carbothioamide]","UV-vis, fluorescence and ESI mass spectrometry of re-purified HadA",EthA promotes the formation of a covalent adduct between Coum-TAC and HadA
